The values that follow come from EP2285386B1, “Use of ribose in the treatment of restless legs syndrome” (RiboCor, Inc., priority 2008, dated 2009).

For data set [1] the following is noted: human, in vivo, iv, cited from earlier work.
Data set [2] concerns two familial males with RLS. Nature of the data set: Restless Legs Syndrome case study: oral D-ribose at three dosing regimens, symptom diary. It is filed as in vivo, human. The note with it: three weeks. An excerpt: We present a report on two familial males with RLS in which the supplementation of D-ribose produced a benefit in lessening the occurrence and severity of their daily symptoms. Both affected male individuals were from a positive family prevalence, three generations carrying the diagnosis of RLS. These males involved the latter two generations, parent and child, respectively. Both men had no underlying medical conditions. Their symptoms of RLS date back for decades and presently have progressed to the moderate to severe discomfort stage, mainly experienced during sedentary periods throughout the day with exacerbation of symptoms during nocturnal sleep.
Both individuals were introduced to D-ribose. To evaluate any potential benefits of D-ribose in RLS, each individual orally consumed D-ribose (five grams per dose) daily at different trial dosing regimens. Each trial dosing regimen lasted for three weeks with a two week interval washout between dosing regimens. The initial regimen involved a single dose of oral D- ribose consumed only at breakfast. The second dosing regimen involved consumption of oral D-ribose at breakfast and lunch. In the last dosing regiment, oral D-ribose was taken with all meals, breakfast, lunch and dinner. A diary pertaining to the documentation and severity of RLS symptoms was compiled.
The two week washout period between stages was designed to observe any return or worsening of their symptoms. […] Following completion of all dosing regimens of oral D-ribose and with the final wash out period, both males elected to re-start oral dosing of D-ribose at 5 grams/doses three times a day.

Where [3] appears, read: second regimen: oral, five grams at breakfast and lunch.

Where two headings read alike, the source gives them in different places.

For the compound `O=C[C@H](O)[C@H](O)[C@H](O)CO` [D-Ribose], in data set [1] (60 mg/kg), the “D-Ribose levels in the serum” value was “approximately 25 mg/dl” and the “half-life of D-Ribose in the serum” value was 11 min. In data set [1] (100 mg/kg), the “D-Ribose levels in the serum” value is listed as “approximately 25 mg/dl” and the “half-life of D-Ribose in the serum” value was 16 min. Moreover, the serum level in data set [1] (222.2 mg/kg) is not above 86 mg/dL. In addition, the serum levels in data set [1] is not above 60 mg/dL. Further, the energy and fatigue result in data set [2] (initial regimen: oral, five grams single dose at breakfast) was “general feeling of more energy and less fatigue”. In data set [2] (setting [3]), the “leg twitching events and the urge to move during the day” value is “reduced for one of the subjects and rarely present in the other”; the “unpleasant sensations during the night” value is “Both still experienced the unpleasant sensations during the night”.
